Key:
[1] = 37° C.; cited from earlier work

Which results are given for “ferric citrate [STM-134, reference compound]”?
Intrinsic Dissolution Rates (37° C., solution of pH 8): 1.88 mg/cm^2/min; Mean Intrinsic Dissolution Rates (37° C., solution of pH 8): 1.88 mg/cm^2/min; Mean Dissolution Rates (Table 2, one value for the pair of samples -1 and -2, listed as STM-134-1): 2.47 mg/cm2/min

For ferric citrate [PAN031203E], which “Intrinsic Dissolution Rates” value (37° C., solution of pH 8) is on record?
The value was 3.13 mg/cm^2/min.

With ferric citrate [PAN031203C] as the substance, how does the “Intrinsic Dissolution Rates” value (37° C., solution of pH 8) read?
The value was 2.68 mg/cm^2/min.

With ferric citrate [PAN031203B] as the substance, how does the “Intrinsic Dissolution Rates” value (37° C., solution of pH 8) read?
The value was 4.00 mg/cm^2/min.

For ferric citrate [PAN031203A], which “Intrinsic Dissolution Rates” value (37° C., solution of pH 8) is on record?
The value was 3.82 mg/cm^2/min.

Which “Intrinsic Dissolution Rates” value (37° C., solution of pH 8) does the source give for ferric citrate [PAN031203D] here?
The value was 2.95 mg/cm^2/min.

For “ferric citrate [crystalline ferric citrate]”, which “rate of dissolution (time)” value [1] is on record?
The value was 10 to 12 h.

Reference: patent publication US10898459B2, “Method of treating chronic kidney disease” (Panion & BF Biotech Inc., priority 2006, dated 2021)
